Test results reported in US12291518B2, “Thyroid hormone receptor agonists and use thereof” (Eccogene Inc., priority 2020, dated 2025).

What was measured:
[1] = target: T1, THR beta-LBD (Homo sapiens, UniProt P10828); assay: THR-β Coactivator Peptide Recruitment Assay (LanthaScreen TR-FRET); type: biochemical; conditions: TR-FRET coactivator recruitment, THR beta-LBD 0.5 nM; for EC50: read-out: THRβ EC50
T1 construct: THR beta-LBD (the final concentration is 0.5 nM) was added to the 384-well assay plate; purchased Invitrogen PV4686
T1 sequence (P10828 217-461 limits assumed): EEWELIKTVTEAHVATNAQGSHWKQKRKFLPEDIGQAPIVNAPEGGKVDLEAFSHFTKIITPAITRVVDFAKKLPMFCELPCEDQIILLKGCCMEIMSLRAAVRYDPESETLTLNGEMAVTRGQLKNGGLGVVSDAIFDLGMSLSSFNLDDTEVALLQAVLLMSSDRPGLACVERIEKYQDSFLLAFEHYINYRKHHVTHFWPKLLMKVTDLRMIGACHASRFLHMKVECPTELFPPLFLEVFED
Method in brief: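 GST-tagged THR beta-LBD (0.5 nM) with test compound recruits fluorescein-SRC2-2 coactivator peptide (0.1 nM), detected with Tb-anti-GST antibody (2 nM).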

[2] = target: T2, THR alpha-LBD (Homo sapiens, UniProt P10827); assay: THR-α Coactivator Peptide Recruitment Assay (LanthaScreen TR-FRET); type: biochemical; conditions: TR-FRET coactivator recruitment, THR alpha-LBD 0.25 nM; for EC50: read-out: THRα EC50
T2 construct: except that THR alpha-LBD of a final concentration 0.25 nM was used; purchased Invitrogen PV4687
T2 sequence (P10827 163-410 isoform P10827-2 limits assumed, other chains not shown): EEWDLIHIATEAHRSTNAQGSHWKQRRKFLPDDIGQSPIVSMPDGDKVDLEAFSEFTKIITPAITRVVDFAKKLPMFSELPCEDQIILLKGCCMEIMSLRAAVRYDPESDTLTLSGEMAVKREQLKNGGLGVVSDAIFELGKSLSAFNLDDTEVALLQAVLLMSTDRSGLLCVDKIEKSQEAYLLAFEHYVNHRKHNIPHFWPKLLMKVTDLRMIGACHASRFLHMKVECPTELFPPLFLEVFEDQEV
Method in brief: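 TR-FRET coactivator recruitment with THR alpha-LBD at 0.25 nM final, Fluorescein-SRC2-2 peptide 0.1 nM and Tb-labeled anti-GST antibody 2 nM; 2 h incubation at room temperature. 520/495 nm emission ratio fitted to a four-parameter sigmoidal curve to give EC50.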

| Compound | THRβ Emax [1] | EC50 [1] | THRα Emax [2] | EC50 [2] |
| --- | --- | --- | --- | --- |
| O=C(NC1CC1)C1(NS(=O)(=O)c2cc(Oc3c(Cl)cc(-n4nc(C(F)F)c(=O)[nH]c4=O)cc3Cl)ncc2O)CCC1 [Compound 121, N-cyclopropyl-1-((2-(2,6-dichloro-4-(6-(difluoromethyl)-3,5-dioxo-4,5-dihydro-1,2,4-triazin-2(3H)-yl)phenoxy)-5-hydroxypyridine)-4-sulfonamido)cyclobutane-1-carboxamide] | C (<75) | > 100 nM | C (<40) | > 1000 nM |
| CC1(C)CC(NS(=O)(=O)c2cc(Oc3c(Cl)cc(-n4nc(C(F)F)c(=O)[nH]c4=O)cc3Cl)ncc2O)C1 [Compound 122] | C (<75) | 2 to 20 nM | B (40~85) | 200 to 1000 nM |
| O=c1[nH]c(=O)n(-c2cc(Cl)c(Oc3cc(S(=O)(=O)NC4CCC4)c(O)cn3)c(Cl)c2)nc1C(F)F [Compound 123, N-cyclobutyl-2-(2,6-dichloro-4-(6-(difluoromethyl)-3,5-dioxo-4,5-dihydro-1,2,4-triazin-2(3H)-yl)phenoxy)-5-hydroxypyridine-4-sulfonamide] | A (90~110) | < 2 nM | A (85~110) | 2 to 200 nM |
| O=c1[nH]c(=O)n(-c2cc(Cl)c(Oc3cc(S(=O)(=O)NC4CCCC4)c(O)cn3)c(Cl)c2)nc1C(F)F [Compound 124, N-cyclopentyl-2-(2,6-dichloro-4-(6-(difluoromethyl)-3,5-dioxo-4,5-dihydro-1,2,4-triazin-2(3H)-yl)phenoxy)-5-hydroxypyridine-4-sulfonamide] | B (75~90) | < 2 nM | B (40~85) | 2 to 200 nM |
| N#C[C@H]1C[C@@H](NS(=O)(=O)c2cc(Oc3c(Cl)cc(-n4nc(C(F)F)c(=O)[nH]c4=O)cc3Cl)ncc2O)C1 [Compound 125, N-((1s,3s)-3-cyanocyclobutyl)-2-(2,6-dichloro-4-(6-(difluoromethyl)-3,5-dioxo-4,5-dihydro-1,2,4-triazin-2(3H)-yl)phenoxy)-5-hydroxypyridine-4-sulfonamide] | B (75~90) | 2 to 20 nM | B (40~85) | 200 to 1000 nM |
| CNS(=O)(=O)c1cc(Oc2c(Cl)cc(-n3nc(C(F)F)c(=O)[nH]c3=O)cc2Cl)ncc1OC [Compound 127, 2-(2,6-dichloro-4-(6-(difluoromethyl)-3,5-dioxo-4,5-dihydro-1,2,4-triazin-2(3H)-yl)phenoxy)-5-methoxy-N-methylpyridine-4-sulfonamide] | C (<75) | 20 to 100 nM | C (<40) | 200 to 1000 nM |
| O=c1[nH]c(=O)n(-c2cc(Cl)c(Oc3cc(S(=O)(=O)C4CC4)c(O)cn3)c(Cl)c2)nc1C(F)F [Compound 128, 2-[3,5-dichloro-4-[(4-cyclopropylsulfonyl-5-hydroxy-2-pyridyl)oxy]phenyl]-6-(difluoromethyl)-1,2,4-triazine-3,5-dione] | B (75~90) | < 2 nM | A (85~110) | 2 to 200 nM |
| N#Cc1nn(-c2cc(Cl)c(Oc3cc(S(=O)(=O)C4CC4)c(O)cn3)c(Cl)c2)c(=O)[nH]c1=O [Compound 129, 2-(3,5-dichloro-4-((4-(cyclopropylsulfonyl)-5-hydroxypyridin-2-yl)oxy)phenyl)-3,5-dioxo-2,3,4,5-tetrahydro-1,2,4-triazine-6-carbonitrile] | A (90~110) | 2 to 20 nM | B (40~85) | 2 to 200 nM |
| N#C[C@H]1C[C@H](NS(=O)(=O)c2cc(Oc3c(Cl)cc(-n4nc(C(F)F)c(=O)[nH]c4=O)cc3Cl)ncc2O)C1 [Compound 130, N-(3-cyanocyclobutyl)-2-[2,6-dichloro-4-[6-(difluoromethyl)-3,5-dioxo-1,2,4-triazin-2-yl]phenoxy]-5-hydroxy-pyridine-4-sulfonamide] | B (75~90) | 2 to 20 nM | B (40~85) | 200 to 1000 nM |
| O=c1[nH]c(=O)n(-c2cc(Cl)c(Oc3cc(S(=O)(=O)NC4CC4)c(O)cn3)c(Cl)c2)nc1C(F)F [Compound 131, N-cyclopropyl-2-(2,6-dichloro-4-(6-(difluoromethyl)-3,5-dioxo-4,5-dihydro-1,2,4-triazin-2(3H)-yl)phenoxy)-5-hydroxypyridine-4-sulfonamide] | A (90~110) | < 2 nM | A (85~110) | 2 to 200 nM |
| O=c1[nH]c(=O)n(-c2cc(Cl)c(Oc3cc(S(=O)(=O)N[C@H]4C[C@@H](O)C4)c(O)cn3)c(Cl)c2)nc1C(F)F [Compound 132, 2-(2,6-dichloro-4-(6-(difluoromethyl)-3,5-dioxo-4,5-dihydro-1,2,4-triazin-2(3H)-yl)phenoxy)-5-hydroxy-N-((1s,3s)-3-hydroxycyclobutyl)pyridine-4-sulfonamide] | A (90~110) | 2 to 20 nM | B (40~85) | 200 to 1000 nM |
| O=c1[nH]c(=O)n(-c2cc(Cl)c(Oc3cc(S(=O)(=O)NC[C@H]4C[C@H](O)C4)c(O)cn3)c(Cl)c2)nc1C(F)F [Compound 133, 2-(2,6-dichloro-4-(6-(difluoromethyl)-3,5-dioxo-4,5-dihydro-1,2,4-triazin-2(3H)-yl)phenoxy)-5-hydroxy-N-(((1r,3r)-3-hydroxycyclobutyl)methyl)pyridine-4-sulfonamide] | B (75~90) | 20 to 100 nM | B (40~85) | > 1000 nM |
| O=c1[nH]c(=O)n(-c2cc(Cl)c(Oc3cc(S(=O)(=O)NC[C@H]4C[C@@H](O)C4)c(O)cn3)c(Cl)c2)nc1C(F)F [Compound 134, 2-(2,6-dichloro-4-(6-(difluoromethyl)-3,5-dioxo-4,5-dihydro-1,2,4-triazin-2(3H)-yl)phenoxy)-5-hydroxy-N-(((1s,3s)-3-hydroxycyclobutyl)methyl)pyridine-4-sulfonamide] | B (75~90) | 20 to 100 nM | B (40~85) | > 1000 nM |
| N#CC1(NS(=O)(=O)c2cc(Oc3c(Cl)cc(-n4nc(C(F)F)c(=O)[nH]c4=O)cc3Cl)ncc2O)CC1 [Compound 135, N-(1-cyanocyclopropyl)-2-(2,6-dichloro-4-(6-(difluoromethyl)-3,5-dioxo-4,5-dihydro-1,2,4-triazin-2(3H)-yl)phenoxy)-5-hydroxypyridine-4-sulfonamide] | A (90~110) | 2 to 20 nM | A (85~110) | 2 to 200 nM |
| O=c1[nH]c(=O)n(-c2cc(Cl)c(Oc3cc(S(=O)(=O)NC4CCOCC4)c(O)cn3)c(Cl)c2)nc1C(F)F [Compound 136, 2-(2,6-dichloro-4-(6-(difluoromethyl)-3,5-dioxo-4,5-dihydro-1,2,4-triazin-2(3H)-yl)phenoxy)-5-hydroxy-N-(tetrahydro-2H-pyran-4-yl)pyridine-4-sulfonamide] | B (75~90) | 2 to 20 nM | B (40~85) | 2 to 200 nM |
| CC(C)(O)CNS(=O)(=O)c1cc(Oc2c(Cl)cc(-n3nc(C(F)F)c(=O)[nH]c3=O)cc2Cl)ncc1O [Compound 137, 2-(2,6-dichloro-4-(6-(difluoromethyl)-3,5-dioxo-4,5-dihydro-1,2,4-triazin-2(3H)-yl)phenoxy)-5-hydroxy-N-(2-hydroxy-2-methylpropyl)pyridine-4-sulfonamide] | C (<75) | 20 to 100 nM | B (40~85) | > 1000 nM |
